Laboratory results: patent US5446057A, “Substituted tetrahydropyridine and piperidine carboxylic acids as muscarinic antagonists” (priority 1993, dated 1995)

Legend:
[1] = tested on: M3 receptors; conditions: literature; cited from earlier work
[2] = target: T1, m1 receptor (Homo sapiens, UniProt P11229); assay: [3H]-NMS receptor binding using membranes from CHO cells expressing cloned human muscarinic receptor m1; conditions: [3H]-NMS 100 pM, pH 7.4, 120 minutes at 25° C.
T1 construct: expressed in transfected cells; host or cells: CHO cells (membranes)
T1 sequence (P11229 1-460): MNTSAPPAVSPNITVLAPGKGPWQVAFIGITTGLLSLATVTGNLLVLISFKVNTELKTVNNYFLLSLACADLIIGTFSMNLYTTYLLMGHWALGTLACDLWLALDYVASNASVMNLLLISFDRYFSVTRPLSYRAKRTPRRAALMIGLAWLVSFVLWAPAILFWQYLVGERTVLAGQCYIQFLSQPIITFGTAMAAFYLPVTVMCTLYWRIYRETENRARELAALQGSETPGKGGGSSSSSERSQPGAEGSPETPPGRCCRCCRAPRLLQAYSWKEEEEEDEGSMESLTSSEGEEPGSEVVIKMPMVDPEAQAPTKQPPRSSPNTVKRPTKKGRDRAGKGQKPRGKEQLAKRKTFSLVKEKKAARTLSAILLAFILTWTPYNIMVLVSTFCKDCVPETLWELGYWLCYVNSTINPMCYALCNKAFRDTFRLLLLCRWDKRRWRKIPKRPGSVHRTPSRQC
Procedure: (§1) [^3 H]-N-methylscopolamine ([^3 H]-NMS) Receptor Binding Using Membranes From Chinese Hamster Ovary (CHO) Cells Selectively Expressing One of the Five Cloned Human Muscarinic Receptors
(§2) Following membrane harvest and storage at -80° C., aliquots of membranes (approximately 10-40 μg protein) are added to 2 mL of 10 mM sodium potassium phosphate buffer, pH 7.4, containing 100 pM [^3 H]-NMS; (78.9 Ci/mmol) and the appropriate test compound. Nonspecific binding is defined as that unaffected by the inclusion of 1 μM atropine. The reaction is initiated by the addition of the membranes and allowed to proceed for 120 minutes at 25° C. with shaking. Termination of the incubation is achieved by rapid vacuum filtration through GF/B Whatman filters using a Brandel Cell Harvester with the filters being washed three times with 5 mL ice-chilled buffer. 10 mL of Beckman Ready Gel scintillation cocktail are added to the filters in vials and the samples are allowed to set overnight before vortexing and counting in a Beckman 800 scintillation counter. IC50 values are calculated using a logit equation.

[3] = target: T2, m2 receptor (Homo sapiens, UniProt P08172); assay: [3H]-NMS receptor binding using membranes from CHO cells expressing cloned human muscarinic receptor m2; conditions: [3H]-NMS 100 pM, pH 7.4, 120 minutes at 25° C.
T2 construct: expressed in transfected cells; host or cells: CHO cells (membranes)
T2 sequence (P08172 1-466): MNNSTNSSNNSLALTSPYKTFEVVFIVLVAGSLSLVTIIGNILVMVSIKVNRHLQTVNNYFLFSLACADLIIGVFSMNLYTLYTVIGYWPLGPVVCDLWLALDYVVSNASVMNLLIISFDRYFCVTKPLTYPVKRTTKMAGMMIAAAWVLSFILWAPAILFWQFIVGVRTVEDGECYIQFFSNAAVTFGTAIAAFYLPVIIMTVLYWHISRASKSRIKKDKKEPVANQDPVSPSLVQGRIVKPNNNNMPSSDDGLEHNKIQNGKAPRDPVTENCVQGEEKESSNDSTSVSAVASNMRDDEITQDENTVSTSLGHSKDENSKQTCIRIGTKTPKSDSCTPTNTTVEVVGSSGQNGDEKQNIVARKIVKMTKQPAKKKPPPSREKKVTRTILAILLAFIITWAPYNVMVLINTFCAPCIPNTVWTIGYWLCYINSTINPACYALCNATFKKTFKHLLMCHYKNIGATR
Procedure: as §1, §2

[4] = target: m3 receptor (Homo sapiens, UniProt P20309); assay: [3H]-NMS receptor binding using membranes from CHO cells expressing cloned human muscarinic receptor m3; conditions: [3H]-NMS 100 pM, pH 7.4, 120 minutes at 25° C.
Chain of m3 receptor (P20309 whole entry): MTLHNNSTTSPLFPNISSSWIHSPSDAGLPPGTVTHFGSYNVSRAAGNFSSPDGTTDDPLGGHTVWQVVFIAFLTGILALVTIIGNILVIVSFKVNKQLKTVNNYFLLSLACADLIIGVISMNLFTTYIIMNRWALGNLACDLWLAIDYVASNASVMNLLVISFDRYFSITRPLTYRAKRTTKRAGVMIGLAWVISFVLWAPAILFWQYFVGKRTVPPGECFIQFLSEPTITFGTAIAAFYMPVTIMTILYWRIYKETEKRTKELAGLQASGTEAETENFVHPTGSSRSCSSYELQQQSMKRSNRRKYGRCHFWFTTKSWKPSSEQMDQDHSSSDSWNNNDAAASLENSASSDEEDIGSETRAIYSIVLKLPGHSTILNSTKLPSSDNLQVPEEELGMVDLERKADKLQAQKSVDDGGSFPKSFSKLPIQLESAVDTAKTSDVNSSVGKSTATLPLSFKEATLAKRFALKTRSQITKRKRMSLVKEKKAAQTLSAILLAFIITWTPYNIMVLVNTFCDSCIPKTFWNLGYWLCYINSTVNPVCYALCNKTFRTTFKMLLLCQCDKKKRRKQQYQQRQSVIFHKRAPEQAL
Procedure: as §1, §2

[5] = target: T3, Hm1 (Homo sapiens, UniProt P11229); assay type: cell-based
T3 construct: expressed in transfected cells; host or cells: CHO Hm1 cells
T3 sequence (P11229 1-460): T1 sequence (P11229 1-460)
Procedure: CHO Hm1, Hm3, or Hm5 cells are grown at 37° C. with 5% CO2 in Dulbecco's modified Eagle's medium (DMEM) supplemented with 10% fetal bovine serum and 1% nonessential amino acids. […] After 48 hours, the medium is aspirated and the cells are washed 2 times with 1 mL MEM containing 10 mM LiCl. 0.5 mLMEM/LiCl then is added to each well and allowed to incubate at 37° C. for at least 15 minutes. […] For antagonist experiments, the appropriate antagonist is added simultaneously with carbachol (3 μM for m1, 5 μM for m3, and 3 μM for m5). After waiting at least 15 minutes, the TCA extract is applied to Dowex-formate columns (Biorad AG 1-X8 resin, formate form, 100-200 mesh). The wells are rinsed with 0.5 mL distilled H2 O and also applied to the columns. The columns are washed 4 times with 3 mL 5 mMmyo-inositol and then total [^3 H]-inositol phosphates are eluted into vials with two 2 mL washes of 1 mM ammonium formate containing 0.1M formic acid. Beckman Ready Gel scintillation cocktail (10 mL) is added and the samples counted in a Beckman 2800 scintillation counter. The efficacy of agonists is estimated from the maximal effect of the compounds on PI turnover (expressed as a percent of the stimulation produced by carbachol (1 mM)). EC50 and IC50 values are also calculated for both agonists and antagonists, respectively.

[6] = target: T4, m5 receptor (Homo sapiens, UniProt P08912); assay: [3H]-NMS receptor binding using membranes from CHO cells expressing cloned human muscarinic receptor m5; conditions: [3H]-NMS 100 pM, pH 7.4, 120 minutes at 25° C.
T4 construct: expressed in transfected cells; host or cells: CHO cells (membranes)
T4 sequence (P08912 1-532): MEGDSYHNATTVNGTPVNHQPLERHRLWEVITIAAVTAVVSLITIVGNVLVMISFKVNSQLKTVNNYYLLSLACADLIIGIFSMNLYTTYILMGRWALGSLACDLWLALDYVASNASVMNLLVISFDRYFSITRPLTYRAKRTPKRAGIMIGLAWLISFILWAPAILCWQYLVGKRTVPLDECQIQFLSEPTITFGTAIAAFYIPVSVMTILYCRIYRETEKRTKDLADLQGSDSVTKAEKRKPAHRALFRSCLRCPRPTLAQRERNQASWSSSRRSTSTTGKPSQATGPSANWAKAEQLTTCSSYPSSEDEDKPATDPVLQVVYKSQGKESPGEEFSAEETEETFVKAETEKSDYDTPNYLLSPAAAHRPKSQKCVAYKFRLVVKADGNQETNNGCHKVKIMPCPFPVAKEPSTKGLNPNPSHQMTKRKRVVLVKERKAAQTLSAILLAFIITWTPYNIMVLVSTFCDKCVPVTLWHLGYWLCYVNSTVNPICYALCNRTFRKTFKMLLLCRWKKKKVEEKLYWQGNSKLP
Procedure: as §1, §2

[7] = target: T5, m4 receptor (Homo sapiens, UniProt P08173); assay: [3H]-NMS receptor binding using membranes from CHO cells expressing cloned human muscarinic receptor m4; conditions: [3H]-NMS 100 pM, pH 7.4, 120 minutes at 25° C.
T5 construct: expressed in transfected cells; host or cells: CHO cells (membranes)
T5 sequence (P08173 1-479): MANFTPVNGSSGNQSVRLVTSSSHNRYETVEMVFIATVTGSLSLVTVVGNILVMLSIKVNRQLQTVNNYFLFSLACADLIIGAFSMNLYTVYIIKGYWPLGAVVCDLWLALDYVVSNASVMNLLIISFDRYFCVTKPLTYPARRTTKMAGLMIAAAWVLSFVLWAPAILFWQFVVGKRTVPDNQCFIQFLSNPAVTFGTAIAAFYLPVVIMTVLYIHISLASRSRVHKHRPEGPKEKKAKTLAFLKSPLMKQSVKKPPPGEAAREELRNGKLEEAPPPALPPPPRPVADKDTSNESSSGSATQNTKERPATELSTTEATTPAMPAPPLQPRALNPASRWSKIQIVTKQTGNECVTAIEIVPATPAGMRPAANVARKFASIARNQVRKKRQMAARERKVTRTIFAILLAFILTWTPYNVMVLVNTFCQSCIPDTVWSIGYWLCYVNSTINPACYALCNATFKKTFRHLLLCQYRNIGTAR
Procedure: as §1, §2

[8] = tested on: M2 receptors; conditions: literature; cited from earlier work
[9] = urinary incontinence; cited from earlier work
[10] = tested on: patients with effort myocardial ischemia; conditions: cited from earlier work

Structure (SMILES) | IC50 [2] [µM] | IC50 [3] [µM] | IC50 [4] [µM] | IC50 [6] [µM] | IC50 [7] [µM] | further results
C[N+]1(C)CCC(OC(=O)C(c2ccccc2)c2ccccc2)CC1 [Example 4-DAMP, 4-diphenylacetoxy-N-methylpiperidine methobromide] |  |  |  |  |  | affinity for M3 receptors [1]: high affinity
CCN1CCC(c2ccccc2)=C(C(=O)N(C)C)C1 [C, 1-Ethyl-1,2,5,6-tetrahydro-4-phenyl-N,N-dimethyl-3-pyridinecarboxamide] | 5.01 | 12.3 | 8.99 | 6.08 | 13.5 | muscarinic antagonism (in words) [5]: potent antagonists
CCN(CC)CC1CCCCN1CC(=O)N1c2ccccc2C(=O)Nc2cccnc21 (stereo not shown) [AF-DX 116] |  |  |  |  |  | affinity for M2 receptors [8]: high affinity
CCCCC1=C(C(=O)OC)CN(CCC)CC1 [F, 1-Propyl-1,2,5,6-tetrahydro-4-butyl-3-pyridinecarboxylic acid, methyl ester] | 17.5 | 5.34 | 14.9 | 41.2 | 50.7 | 
O[Si](CCCN1CCCCC1)(c1ccccc1)C1CCCCC1 (stereo not shown) [hexahydrosiladifenidol] |  |  |  |  |  | affinity for M3 receptors [1]: high affinity
CCN1CCC(c2ccccc2)=C(C(=O)OC(C)C)C1 [Example 4, 1-Ethyl-1,2,5,6-tetrahydro-4-phenyl-3-pyridinecarboxylic acid, 1-methylethyl ester] |  | 0.347 |  |  | 0.643 | 
CCN1CC=C(c2ccccc2)C(C(=O)OCCc2ccc(Cl)cc2)C1 (stereo not shown) [Example 16, 1-Ethyl-1,2,3,6-tetrahydro-4-phenyl-3-pyridinecarboxylic acid, 2-(4-chlorophenyl)ethyl ester] |  | 1.29 |  |  | 1.85 | 
CCN(CC)CC#CCOC(=O)C(O)(c1ccccc1)C1CCCCC1 (stereo not shown) [oxybutynin] |  |  |  |  |  | side effects limiting use [9]: mydriasis, dry mouth
COC(=O)C1=C(C)CCN(C)C1 [E, 1,4-Dimethyl-1,2,5,6-tetrahydro-3-pyridinecarboxylic acid, methyl ester] | 61 | 10.4 | 68 | 73.8 | > 50 | 
CCN1CCC(c2ccccc2)=C(C(=O)NC)C1 [D, 1-Ethyl-1,2,5,6-tetrahydro-4-phenyl-N-methyl-3-pyridinecarboxamide] | 21.1 | 34.8 | 38.7 | 49.1 | 73.1 | 
CN1CCN(CC(=O)N2c3ccccc3C(=O)Nc3cccnc32)CC1 [pirenzepine] |  |  |  |  |  | exercise tolerance [10]: improve exercise tolerance
COc1ccccc1CNCCCCCCNCCCCCCCCNCCCCCCNCc1ccccc1OC [methoctramine] |  |  |  |  |  | affinity for M2 receptors [8]: high affinity
